The subject of the experiment is MDA-MB-468 breast. The experiment is described as follows: inhibition of tumour cell growth, NCI panel, 48 h.

Values joined by “and” are separate entries in the source; they are usually repeats but may differ in a detail not shown here. Equal entries are not always repeated.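 Results reflect a 48-hour exposure of cells in 96-well plates to compound at five concentrations. Abbreviation: GI50, concentration required for 50% inhibition of growth. Definition used: TGI = concentration required for complete inhibition of growth.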

Take `CC(C)(C)c1[nH]cnc1/C=c1\[nH]c(=O)/c(=C/c2ccccc2)[nH]c1=O`: the GI50 is 22.6 nM and the TGI worked out at 28600 nM.

For `O=C(Nc1ccc(Cl)cc1F)c1cc(I)ccc1O`, the GI50 was 2100 nM and the TGI stood at 5450 nM.

For `CC1CCN(CCCCCOc2ccc3oc4cc(Cl)ccc4c(=O)c3c2)CC1`, the GI50 was 6130 nM and the TGI is 13600 nM.

With `C=CC[P+](c1ccccc1)(c1ccccc1)c1ccccc1`, the GI50 was 609 nM and the TGI turned out to be 9130 nM.

Take `C#C[C@]1(O)CC[C@H]2[C@@H]3CC=C4c5sc(Nc6cccc(C)n6)nc5CC[C@]4(C)[C@H]3CC[C@@]21C`: the GI50 is 2040 nM and the TGI came out at 5680 nM.

`O=C(CCCN1CCOCC1)Nc1ccc(Cn2nnc3c2C(=O)c2nnn(Cc4ccc(NC(=O)CCCN5CCOCC5)cc4)c2C3=O)cc1`: the GI50 is 304 nM and the TGI is 817 nM.

For `CC(C)(C#N)c1cc(F)cc(C(=O)Nc2cc(Nc3ncccc3-c3ncnc4nc[nH]c34)ccc2F)c1`, the GI50 is more than 10000 nM and the TGI is more than 10000 nM.

Regarding `O=C1c2ccccc2C(=Cc2ccccc2)c2ccccc21`, the GI50 is 565 nM and the TGI is 10700 nM.

Regarding `CCCC[N+](CCCC)=c1ccc2nc3c(C)cc(N(CC)CC)cc3sc-2c1`, the GI50 is 39.1 nM and the TGI came to 351 nM.

As to `C[C@@H]1CC[C@@H]2[C@@H]1[C@H](OC(=O)/C=C/c1ccccc1)[C@]1(C3CCCCC3)C[C@@H](NC(=O)CO)[C@@]2(C)O1`, the GI50 is 17100 nM and the TGI is 33500 nM.

Consider `O=c1c2ccccc2n2n1CC(O)C2` (configuration not stated), for which the GI50 is more than 100000 nM and the TGI is more than 100000 nM.

For `O=[N+]([O-])c1ccc2c(N3CCC(CCCC4CCN(c5ncnc6cc([N+](=O)[O-])ccc56)CC4)CC3)ncnc2c1`, the GI50 is 31.6 nM and the TGI is more than 100000 nM.

`CNC(=O)c1ccc2cc(C3(O)CCn4cncc43)ccc2c1` (configuration not stated): the GI50 was more than 100000 nM and the TGI was more than 100000 nM.

Regarding `Cc1cc(C2=NNC(=O)Cc3cc4c(cc32)OCCO4)cc(C)c1N`, the GI50 is 523 nM and the TGI worked out at 7240 nM.

As for `CC/C=C\C/C=C\C[C@H](O)C/C=C1/C(=O)C=C[C@@H]1C/C=C\CCCC(=O)O`, the GI50 was 2320 nM and the TGI is 6710 nM.

On to `CCN1C(=O)NC(=O)C(C)(N2C(=O)c3c(F)c(F)c(F)c(F)c3C2=O)C1=O` (configuration not stated), for which the GI50 was 1750 nM and the TGI is 5680 nM.

For the molecule `CN(C)c1ncnc2c1nnn2C1OC(CO)C(O)C1O` (configuration not stated), the GI50 was 73.6 nM and the TGI came out at 1160 nM.

Regarding `COc1cc2nccc(Oc3ccc(NC(=O)C4(C(=O)Nc5ccc(F)cc5)CC4)cc3)c2cc1Oc1ccc(N)cn1`, the GI50 is 2450 nM and the TGI stood at 8820 nM.

Regarding `COc1cnc2c(c1)C(=O)c1c-2n(CCCN2CCC(O)CC2)c(=O)c2cc(F)ccc12`, the GI50 was 152 nM and the TGI was 438 nM.

Turning to `O=C(Nc1cccc(Oc2nnc(Cl)c3ccccc23)c1)Nc1ccc(Cl)c(C(F)(F)F)c1`, the GI50 is 689 nM and the TGI came to 3430 nM.

For `CC1=C2C(=C[C@@](C)(C=O)[C@@H]2O)C(=O)[C@](C)(O)C12CC2`, the GI50 was 233 nM and the TGI is 764 nM.

As for `O=C(Nc1ccc(Oc2ccc3nc(NC(=O)c4ccccc4)[nH]c3c2)cc1)Nc1cc(C(F)(F)F)ccc1F`, the GI50 was 625 nM and the TGI amounted to 5450 nM.

With `CN1CCN(c2ccc3nc(-c4c(N)c5c(F)cccc5[nH]c4=O)[nH]c3c2)CC1`, the GI50 was 1460 nM and 953 nM and 2300 nM; the TGI is 3580 nM and > 2300 nM and 7030 nM.

For the molecule `CN(C)c1ccc(/C=C(\C#N)c2nc3ccccc3n2C)cc1`, the GI50 was 1760 nM and the TGI was more than 100000 nM.

`CN1CCN(Cc2ccc(NC(=O)c3cncc(C#Cc4cncc5ncccc45)c3)cc2C(F)(F)F)CC1`: the GI50 was 8720 nM and the TGI worked out at 21800 nM.

Turning to `COc1ccc(-c2nn(-c3cccc(NC(=O)c4ccc5c(c4)OCCO5)c3)cc2-c2ccncc2)cc1Cl`, the GI50 was 1630 nM and the TGI turned out to be 6480 nM.
